Laboratory results: patent US8778616B2, “Method of using CCR3 binding agents to detect choroidal neovascularization” (University of Kentucky Research Foundation, priority 2009, dated 2014)

Legend:
Rac-1 = Rac-1 activation pull-down assay; assay type: cell-based; settings: human CECs; CCL11 10 ng/ml, CCL24 100 ng/ml, CCL26 2 μg/ml; versus unstimulated (0 s) cells
Method: Rac-1 activation. Human CECs were cultured in EGM-2 MV containing 5% FBS. Prior to starting the assay, cells were serum starved with basal medium (MCDB131) supplemented with 1% FBS overnight. Cells were stimulated for designated times with Eotaxin-1, 2 and 3 (10 ng/ml, 100 ng/ml and 2 μg/ml respectively). Equal amounts of lysates (500 μg) were incubated with GST-Pak1-PBD agarose beads (Upstate) to pull-down active GTP-bound Rac-1 at 4° C. for 1 h with rotation. The samples were subsequently analyzed for bound Rac-1 by western blot analysis using an anti-Rac-1 antibody (Upstate).

human CECs [1] = assay: Proliferation assay (BrdU ELISA); assay type: cell-based; settings: 24 h stimulation; CCL11 10 ng/ml, CCL24 100 ng/ml, CCL26 2 μg/ml; versus BSA
Method: Proliferation assay. Human CECs were synchronized for cell cycle state by first cultivating them in EGM2-MV media (Lonza) supplemented with 10% FBS (Gibco) to achieve complete confluence and then by overnight serum starvation in MCDB131 media (Gibco) with 0.1% FBS. They were passaged to 96-well plates at a density of 5,000 cells per well, followed by stimulation for 24 h with eotaxin-1, 2 or 3 (10 ng, 100 ng and 2 μg per ml, respectively; Peprotech) in MCDB131 media with 0.1% FBS. After 24 h, cell viability was measured with BrdU ELISA (Chemicon) according to manufacturer's instructions.

human CECs [2] = assay: F-actin polymerization assay; assay type: cell-based; settings: CCL11 10 ng/ml, CCL24 100 ng/ml, CCL26 2 μg/ml; versus PBS
Method: F-actin Polymerization Assay. Human CECs were seeded in black-walled 96-well plates and grown to 70-80% confluence in fully supplemented EGM-2MV. Cultures were serum starved overnight in basal media and then stimulated with recombinant human eotaxin-1 (10 ng/ml), eotaxin-2 (100 ng/ml), eotaxin-3 (2 μg/ml) (Peprotech), or vehicle control (PBS). At 0, 10, 30, 60, or 120 sec time-points, cells were fixed in 3.7% paraformaldehyde for 10 min, washed, permeabilized in PBS with 0.1% Triton-X, and then stained with rhodamine labelled Phalloidin (1:200, Invitrogen) per manufacturer's recommendations. Plates were analyzed on a fluorescent plate reader (Synergy 4, Biotek) followed by fluorescent microscopy (Nikon E800).

laser-induced CNV [3] = assay: Laser-induced CNV in Ccr3−/− mice (specificity of CCR3 blockade); assay type: in vivo, mouse; settings: n=5, P>0.1
Method: (§1) Mouse model of CNV. Laser photocoagulation (OcuLight GL, Iridex Corporation) was performed on mouse eyes to induce CNV, and CNV volumes were measured 7 days after injury by scanning laser confocal microscope (TCS SP, Leica) as previously described (Kleinman, et al., Nature. 452, 591-597 (2008)). Drug injections. Rat IgG2a neutralizing antibody against mouse CCR3 (R&D Systems), control rat IgG2a (Serotec), goat neutralizing antibody against mouse CCL11 (R&D Systems), goat neutralizing antibody against mouse CCL24 (R&D Systems), control goat IgG (Jackson Immunoresearch), or (S)-Methyl-2-naphthoylamino-3-(4-nitrophenyl)propionate (SB328437; Calbiochem) dissolved in DMSO were injected into the vitreous humor using a 33-gauge double-calibre needle (Ito Corporation) once, immediately after laser injury as previously described (Kleinman, et al., (2008) supra).
Animals. All animal experiments were in accordance with the guidelines of the University of Kentucky IACUC and the Association for Research in Vision and Ophthalmology. C57BL/6J and Kit^W-v/Kit^W-v mice were purchased from The Jackson Laboratory. […]

retina = assay: Retinal toxicity by fundus imaging and electroretinography; assay type: in vivo; settings: wild-type mice, fundus imaging and electrophysiological function; anti-VEGF-A: repeated intravitreous administration
Method: Electroretinography. Mice were dark adapted overnight and then anesthetized. Both eyes were positioned within a ColorBurst Ganzfeld stimulator (Diagnosys). Espion software (Diagnosys) was used to program a fully automated flash intensity series from which retinal responses were recorded.

laser-induced CNV [4] = assay: Laser-induced CNV in wild-type mice; assay type: in vivo, mouse; settings: single intraocular administration after laser injury, versus isotype IgG or vehicle
Method: as §1
Drug injections. […]

CCR3 = CCR3 bioimaging: fundus angiography after intravenous injection; assay type: in vivo, mouse; settings: wild-type and Ccl2−/−×Ccr2−/− mice
Method: CCR3 bioimaging. F(ab) fragments were created from monoclonal IgG2a antibody raised against the extracellular domain of murine CCR3 (R&D Systems) and an isotype rat IgG2a (R&D Systems) using a commercially available papain-based kit (Pierce). Recovered fragments were conjugated with quantum dots (Invitrogen, QDot-800) and resuspended in sterile PBS. Ccl2^−/−×Ccr2^−/− mice were administered 100 μg of tagged CCR3 F(ab) or isotype F(ab) via tail vein injection after acquiring baseline fluorescent imaging using a Topcon retinal camera (TRC-50IX). Serial images were then acquired at 1, 4, and 12 h after which eyes were harvested and frozen in OCT for immunofluorescent analyses. Retinal images were analyzed (ImageNet, Topcon) by comparison to baseline and fluorescein angiographic data. Hyperfluorescent areas were then cropped, equally thresholded, and pseudocolored (Photoshop CS3, Adobe). Sections from QDot-conjugated CCR3 or rat IgG2a isotype F(ab) injected animals were fixed in 4% paraformaldehyde and blocked with 5% normal donkey serum/5% goat serum in PBS, stained with rat anti-mouse CD31 (BD Biosciences) and either rabbit anti-mouse CCR3 (Santa Cruz) or rabbit anti-Ki67 (Abcam) followed by appropriate fluorescent secondary antibodies (Alexa Fluor 488/594, Invitrogen), and evaluated by confocal laser scanning microscopy (Leica SP-5).

Molecule | active (GTP-bound) Rac-1 GTPase levels (Rac-1) | human CEC proliferation (human CECs [1]) | actin polymerization in human CECs (human CECs [2]) | CNV in Ccr3−/− mice (laser-induced CNV [3]) | retinal toxicity (retina) | laser-induced CNV (effect in words) (laser-induced CNV [4]) | laser-induced CNV (effect in words) (laser-induced CNV [4]; listed as (S)-Methyl-2-naphthoylamino-3-(4-nitrophenyl)propionate) | hyperfluorescence indicative of CNV on fluorescein angiography (CCR3)
CCL26: CCR3 ligand eotaxin-3, recombinant human (Peprotech) | increased levels of activate Rac-1 GTPase | induced human CEC proliferation | induced actin polymerization |  |  |  |  | 
CCL11: CCR3 ligand eotaxin-1, recombinant human (Peprotech) | increased levels of activate Rac-1 GTPase | induced human CEC proliferation | induced actin polymerization |  |  |  |  | 
(S)-Methyl-2-naphthoylamino-3-(4-nitrophenyl)propionate [SB328437] |  |  |  | 109±16 % of control | neither CCR3 Ab nor CCR3 receptor antagonist induced retinal toxicity | reduced | suppressed laser injury-induced CNV in wild-type mice in a dose-dependent fashion | 
O=C([O-])c1ccccc1-c1c2ccc(=O)cc-2oc2cc([O-])ccc12.[Na+].[Na+] [sodium fluorescein] |  |  |  |  |  |  |  | no areas of hyperfluorescence indicative of CNV
CCL24: CCR3 ligand eotaxin-2, recombinant human (Peprotech) (protein, UniProt O00175 27-119, looked up) C-C motif chemokine 24: VVIPSPCCMFFVSKRIPENRVVSYQLSSRSTCLKAGVIFTTKKGQQFCGDPKQEWVQRYMKNLDAKQKKASPRARAVAVKGPVQRYPGNQTTC | increased levels of activate Rac-1 GTPase | induced human CEC proliferation | induced actin polymerization |  |  |  |  | 
